Results published in patent US10053462B2, “P2X7 modulators” (Jansssen Pharmaceutica NV, priority 2013, dated 2018).
Read-outs that look alike come from different tables or passages of the source.

Target: P2X7 (Homo sapiens (Human), UniProt Q99572)
Experiment: P2X7 antagonism in human peripheral blood mononuclear cells (PBMCs), IL-1β release
Type: cell-based
Conditions: LPS 30 ng/ml + Bz-ATP 0.5 mM; for remaining activity at 10 µM: read-out: PBMC 10 μM (% control)
Protocol: P2X7 Antagonism in Human Peripheral Blood Mononuclear Cells (PBMCs) and Human Whole Blood.
Human blood was collected using a blood donor program. PBMCs were isolated from blood using a Ficoll density gradient technique. Briefly, blood was laid on Ficoll solution and centrifuged at RT for 20 minutes at 2000 rpm. The buffy layer (between red blood cells and plasma) was carefully collected by aspiration, washed with PBS and centrifuged again at 1500 rpm for 15 minutes. The resulting cell pellet was washed and plated on 96 well-plates for experiments. For the Human Whole Blood experiments, 150 μl of human blood was platted on 96 well-plates. Lipopolysaccharide (LPS) (30 ng/ml) was added to each well and incubated for 1 hour. Test compounds were then added and incubated for 30 minutes. The P2X7 agonist, 2′(3′)-O-(4-benzoylbenzoyl) adenosine 5′-triphosphate (Bz-ATP) was then added at a final concentration of 0.5 mM (PBMC) or 1 mM (blood). Cells were incubated for an additional 1.5 hours. At that point, supernatant was collected and stored for IL-1β assay using manufacturer's protocol for enzyme-linked immunosorbent assay (ELISA). Data was expressed as percent control, where control is defined as the difference in IL-1β release in LPS+Bz-ATP samples and LPS only samples. Data was plotted as response (% control) versus concentration to generate IC50 values. […] Data are analyzed and graphed on Graphpad Prism 5. For analysis, each concentration point is averaged from triplicate values and the averaged values are plotted on Graphpad Prism.

[1] = P2X7, Table 2 (additional runs), 10 μM compound

Chain of P2X7 (Q99572 whole entry): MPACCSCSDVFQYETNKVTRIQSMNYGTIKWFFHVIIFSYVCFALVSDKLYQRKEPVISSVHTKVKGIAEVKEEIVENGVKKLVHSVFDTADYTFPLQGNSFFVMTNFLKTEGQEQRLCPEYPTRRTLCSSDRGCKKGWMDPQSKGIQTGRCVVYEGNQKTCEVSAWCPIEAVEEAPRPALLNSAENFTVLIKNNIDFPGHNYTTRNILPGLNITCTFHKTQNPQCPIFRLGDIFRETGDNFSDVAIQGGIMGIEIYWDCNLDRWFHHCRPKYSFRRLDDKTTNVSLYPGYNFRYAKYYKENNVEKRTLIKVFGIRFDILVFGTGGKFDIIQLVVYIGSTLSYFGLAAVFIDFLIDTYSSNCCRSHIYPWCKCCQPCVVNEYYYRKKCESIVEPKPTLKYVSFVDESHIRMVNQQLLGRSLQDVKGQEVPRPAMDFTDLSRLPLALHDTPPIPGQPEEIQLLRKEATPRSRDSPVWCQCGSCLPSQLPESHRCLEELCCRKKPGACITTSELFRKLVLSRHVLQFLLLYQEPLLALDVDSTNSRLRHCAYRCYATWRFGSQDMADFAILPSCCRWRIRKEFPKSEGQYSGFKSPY

Compound	remaining activity at 10 µM [1] [%]	PBMC 10 μM (% control) (Table 1, 10 μM compound)	remaining activity at 10 µM (P2X7, Table 1, 10 μM compound) [%]
Cc1ccnc(-c2nnc3n2C[C@H]2CCC[C@@H]3N2C(=O)c2cccc(C(F)(F)F)c2Cl)c1 (stereo in doubt) [Example 194, (6R,10S)-11-{[2-Chloro-3-(trifluoromethyl)phenyl]carbonyl}-3-(4-methylpyridin-2-yl)-5,6,7,8,9,10-hexahydro-6,10-epimino[1,2,4]triazolo[4,3-a]azocine]	-13		
O=C(c1ccnc(C(F)(F)F)c1F)N1[C@@H]2CCC[C@H]1c1nnc(-c3ccccn3)n1C2 (stereo in doubt) [Example 198, (6R,10S)-11-{[3-Fluoro-2-(trifluoromethyl)pyridin-4-yl]carbonyl}-3-pyridin-2-yl-5,6,7,8,9,10-hexahydro-6,10-epimino[1,2,4]triazolo[4,3-a]azocine]	4.1		
Cc1c(C(=O)N2[C@H]3CC[C@@H]2c2nnc(-c4cscn4)n2C3)cccc1C(F)(F)F [Example 53, (6S,9R)-10-{[2-Methyl-3-(trifluoromethyl)phenyl]carbonyl}-3-(1,3-thiazol-4-yl)-6,7,8,9-tetrahydro-5H-6,9-epimino[1,2,4]triazolo[4,3-a]azepine]	4	4.0	
O=C(c1cccc(C(F)(F)F)c1Cl)N1[C@@H]2CCC[C@H]1c1nnc(-c3ccncn3)n1C2 (stereo in doubt) [Example 197, (6R,10S)-11-{[2-Chloro-3-(trifluoromethyl)phenyl]carbonyl}-3-pyrimidin-4-yl-5,6,7,8,9,10-hexahydro-6,10-epimino[1,2,4]triazolo[4,3-a]azocine]	1.8		
O=C(c1ccc(Cl)c(F)c1Cl)N1[C@@H]2CCC[C@H]1c1nnc(-c3ccccn3)n1C2 (stereo in doubt) [Example 202, (6R,10S)-11-[(2,4-Dichloro-3-fluorophenyl)carbonyl]-3-pyridin-2-yl-5,6,7,8,9,10-hexahydro-6,10-epimino[1,2,4]triazolo[4,3-a]azocine]	-2.3		
O=C(c1ccnc(C(F)(F)F)c1Cl)N1[C@@H]2CCC[C@H]1c1nnc(-c3ccccn3)n1C2 (stereo in doubt) [Example 199, (6R,10S)-11-{[3-Chloro-2-(trifluoromethyl)pyridin-4-yl]carbonyl}-3-pyridin-2-yl-5,6,7,8,9,10-hexahydro-6,10-epimino[1,2,4]triazolo[4,3-a]azocine]	-3.2		
COc1ccnc(-c2nnc3n2C[C@H]2CCC[C@@H]3N2C(=O)c2cccc(C(F)(F)F)c2Cl)c1 (stereo in doubt) [Example 27, (6R*,10S*)-11-{[2-Chloro-3-(trifluoromethyl)phenyl]carbonyl}-3-(4-methoxypyridin-2-yl)-5,6,7,8,9,10-hexahydro-6,10-epimino[1,2,4]triazolo[4,3-a]azocine]	4.8		4.8
O=C(c1cccc(C(F)(F)F)c1Cl)N1[C@@H]2CCC[C@H]1c1nnc(-c3ccc(F)cn3)n1C2 (stereo in doubt) [Example 12, (6R*,10S*)-11-{[2-Chloro-3-(trifluoromethyl)phenyl]carbonyl}-3-(5-fluoropyridin-2-yl)-5,6,7,8,9,10-hexahydro-6,10-epimino[1,2,4]triazolo[4,3-a]azocine]	3.6		-0.8
O=C(c1cccc(C(F)(F)F)c1Cl)N1[C@H]2CCC[C@@H]1c1nnc(-c3cscn3)n1C2 (stereo in doubt) [Example 8, (6S*,10R*)-11-{[2-Chloro-3-(trifluoromethyl)phenyl]carbonyl}-3-(1,3-thiazol-4-yl)-5,6,7,8,9,10-hexahydro-6,10-epimino[1,2,4]triazolo[4,3-a]azocine]	7.3		7.3
